Measurements as given in patent US20030077571A1, “Experimental model and method for evaluation of therapeutic agents against asthenopia” (priority 2001, published 2003).
“And” between values parts separate entries of the source, which are not always exact repeats. Equal entries are not always repeated. Where two headings read alike, the source gives them in different places.

Test system: ciliary muscle
Assay: Atropine inhibition of acetylcholine-induced ciliary muscle contraction (Magnus tube)
Type: cell-based, rabbit
Settings: for inhibition at 1 µM: Oryctolagus cuniculus, atropine 10^-6 mol/L vs control; for Tension of Contraction (g), Tables 2 and 6 / Tension of Contraction (g), Tables 4 and 8 / Tension of Contraction (g), Tables 3 and 7: individual enucleated organs 1-2
Procedure: The ciliary muscle obtained in EXAMPLE 1 was suspended in a Magnus tube filled with Krebs-Henseleit solution bubbled through with a mixed gas of 5% carbon dioxide and 95% oxygen. Krebs-Henseleit solution was prepared as follows. A-solution, B-solution, C-solution, water and D-solution were mixed at a ratio of 1:1:1:6:1 in the following order. First A-solution, B-solution and C-solution were mixed in the above ratio followed by the addition of distilled water. After rigorous mixing, D-solution was added. The solution thus prepared was shielded from light and used after heating at 37 degrees C.
The sample in the Magnus tube was suspended at a loading weight of 0.4 g using a tension transducer (Isometric Transducer, FD Pick-up TB-611 T type, made by Nihon Kohden Corporation, Tokyo, Japan). After equilibration for 30 minutes, acetylcholine (made by SIGMA, St. Louis, Mo.) at a final concentration of 10-4 mol/L was added for the first stimulation. After tension reached a plateau value, the sample was washed with a buffer until the tension returned to the baseline. This procedure was repeated nine times.
The tension of the sample upon each stimulation was recorded by the data collection software (VISUAL DESIGNER ver. 2.3, made by INTELLIGENT INSTRUMENTATION, Tucson, Ariz.) via the tension transducer, an input box (JD-112S type, made by Nihon Kohden Corporation), an amplifier for pressure strain (AP-621G type, made by Nihon Kohden Corporation) and an A.D. conversion board (PCI-20428W, made by INTELLIGENT INSTRUMENTATION).
The net tension was calculated by subtracting the baseline tension from the tension observed after stimulation, and this was defined as the contraction rate. The first net tension, i.e., tension at the first stimulation—baseline tension, was set as a contraction rate of 100%.
In addition, the sample in the Magnus tube was treated with atropine at a final concentration of 10-6 mol/L and subjected to acetylcholine stimulation as described above, in order to confirm whether the tension of the sample was in fact due to stimulation by acetylcholine.

[1] = atropine 10^-6 mol/L, baseline tension data set
[2] = atropine 10^-6 mol/L, net tension data set
[3] = atropine 10^-6 mol/L, tension after acetylcholine stimulation data set

## CN1[C@@H]2CC[C@H]1C[C@@H](OC(=O)C(CO)c1ccccc1)C2 (stereo partly shown) [atropine]
Baseline tension data set, read-out: Inhibition Value (%), Table 6
  inhibition at 1 µM: 84.6%
Net tension data set, read-out: Inhibition Value (%), Table 8
  inhibition at 1 µM: 75.6%
Tension after acetylcholine stimulation data set, read-out: Inhibition Value (%), Table 7
  inhibition at 1 µM: 82%
Atropine 10^-6 mol/L
  contraction of the ciliary muscle elicited by acetylcholine: inhibited
[1]
  Tension of Contraction, Average ± standard deviation, Table 6: 0.0245 ± 0.0024 g
  Tension of Contraction (g), Tables 2 and 6: 0.0228 g and 0.0262 g
Atropine 10^-6 mol/L, baseline tension data set, listed as Artopine
  Tension of Contraction (g), Tables 2 and 6: 0.0228 g and 0.0262 g
[2]
  Tension of Contraction, Average ± standard deviation, Table 8: 0.0156 ± 0.0076 g
  Tension of Contraction (g), Tables 4 and 8: 0.0102 g and 0.0210 g
Atropine 10^-6 mol/L, net tension data set, listed as Artopine
  Tension of Contraction (g), Tables 4 and 8: 0.0102 g and 0.0210 g
[3]
  Tension of Contraction, Average ± standard deviation, Table 7: 0.0401 ± 0.0100 g
  Tension of Contraction (g), Tables 3 and 7: 0.0330 g and 0.0472 g
Atropine 10^-6 mol/L, tension after acetylcholine stimulation data set, listed as Artopine
  Tension of Contraction (g), Tables 3 and 7: 0.0330 g and 0.0472 g
